Test system: human adult primary fibroblast cells
Assay: Proliferative analysis (population doubling, cell counts per passage) under standard and oxidative stress conditions
Type: cell-based
Method: Analysis of cellular proliferation rate and telomere length in cultures of human adult primary fibroblast cells treated with lutein under standard and oxidative stress conditions. Primary cultures of adult human fibroblast were established. Cells are seeded at 2×10^3 cells/cm2 in GlutaMax™ high glucose Dulbecco's modified Eagle's medium (DMEM, Gibco®), and supplemented with 10% fetal bovine serum (FBS, HyClone, Thermo Scientific), penicillin (100 U/ml) and reptomycin (1000 U/ml). Media is renewed every 2-3 days and cells passaged at sub-confluence (70-80%) every 4-5 days. Compounds or vehicle control are added to the cells in culture. Cell growth is monitored for each condition by counting cell numbers at each passage using a Countess™ cell counter (Invitrogen). Population doubling (PD) was calculated with the formula PD=(log (Nn/Nn-1))/log 2 where n is the passage; and N the number of cells. One PD is equivalent to one round of cell replication. Eight independent condition were evaluated by proliferative Analysis: Standard cell culture condition+Lutein−10 μg/ml (LUT10) Standard cell culture condition+Lutein−5 μg/ml (LUT5) Standard cell culture condition+Lutein−1 μg/ml (LUT1) Standard cell culture condition+Lutein−10 μg/ml+10 μM H2O2 (LUT10+H2O2) Standard cell culture condition+Lutein−5 μg/ml+10 μM H2O2(LUT5+H2O2) Standard cell culture condition+Lutein−1 μg/ml+10 μM H2O2 (LUT1+H2O2) Cells were expanded during eight weeks under standard and oxidative (10 μM H2O2) cell culture condition as described previously. Fresh treatments were prepared and added to the cells at every passage and also when media was renewed. Stock solution of 10 mg/ml of the compound was prepared in DMSO and the different treatments were prepared from that stock.

[1] = Lutein 1 μg/ml + 10 μM H2O2, week 1 (P1)
[2] = Lutein 1 μg/ml + 10 μM H2O2, week 2 (P2)
[3] = Lutein 1 μg/ml + 10 μM H2O2, week 3 (P3)
[4] = Lutein 1 μg/ml + 10 μM H2O2, week 4 (P4)
[5] = Lutein 1 μg/ml + 10 μM H2O2, week 5 (P5)
[6] = Lutein 1 μg/ml + 10 μM H2O2, week 6 (P6)
[7] = Lutein 1 μg/ml + 10 μM H2O2, week 7 (P7)
[8] = Lutein 1 μg/ml + 10 μM H2O2, week 8 (P8)
[9] = Lutein 1 μg/ml, standard culture, week 1 (P1)
[10] = Lutein 1 μg/ml, standard culture, week 2 (P2)
[11] = Lutein 1 μg/ml, standard culture, week 3 (P3)
[12] = Lutein 1 μg/ml, standard culture, week 4 (P4)
[13] = Lutein 1 μg/ml, standard culture, week 5 (P5)
[14] = Lutein 1 μg/ml, standard culture, week 6 (P6)
[15] = Lutein 1 μg/ml, standard culture, week 7 (P7)
[16] = Lutein 1 μg/ml, standard culture, week 8 (P8)
[17] = Lutein 5 μg/ml + 10 μM H2O2, week 1 (P1)
[18] = Lutein 5 μg/ml + 10 μM H2O2, week 2 (P2)
[19] = Lutein 5 μg/ml + 10 μM H2O2, week 3 (P3)
[20] = Lutein 5 μg/ml + 10 μM H2O2, week 4 (P4)
[21] = Lutein 5 μg/ml + 10 μM H2O2, week 5 (P5)
[22] = Lutein 5 μg/ml + 10 μM H2O2, week 6 (P6)
[23] = Lutein 5 μg/ml + 10 μM H2O2, week 7 (P7)
[24] = Lutein 5 μg/ml + 10 μM H2O2, week 8 (P8)

CC1=C[C@H](O)CC(C)(C)[C@H]1/C=C/C(C)=C/C=C/C(C)=C/C=C/C=C(C)/C=C/C=C(C)/C=C/C1=C(C)C[C@@H](O)CC1(C)C [Lutein]
Cumulative Population Doubling per passage [1]: 3.42
Population Doubling per passage [1]: 3.42
Total number of cells per passage [1]: 1.60E+06
Cumulative Population Doubling per passage [2]: 6.29
Population Doubling per passage [2]: 2.87
Total number of cells per passage [2]: 1.17E+07
Cumulative Population Doubling per passage [3]: 9.16
Population Doubling per passage [3]: 2.37
Total number of cells per passage [3]: 8.60E+07
Cumulative Population Doubling (Table 7A) (Lutein 1 μg/ml + 10 μM H2O2, week 4): 12.3
Cumulative Population Doubling per passage [4]: 12.28
Population Doubling per passage [4]: 3.12
Total number of cells per passage [4]: 7.46E+08
Cumulative Population Doubling per passage [5]: 14.76
Population Doubling per passage [5]: 2.49
Total number of cells per passage [5]: 4.18E+09
Cumulative Population Doubling per passage [6]: 17.41
Population Doubling per passage [6]: 2.65
Total number of cells per passage [6]: 2.62E+10
Cumulative Population Doubling per passage [7]: 18.41
Population Doubling per passage [7]: 1.00
Total number of cells per passage [7]: 5.23E+10
Cumulative Population Doubling (Table 7A) (Lutein 1 μg/ml + 10 μM H2O2, week 8): 20.7
Cumulative Population Doubling per passage [8]: 20.72
Population Doubling per passage [8]: 2.30
Total number of cells per passage [8]: 2.58E+11
Cumulative Population Doubling per passage [9]: 3.81
Population Doubling per passage [9]: 3.81
Total number of cells per passage [9]: 2.10E+06
Cumulative Population Doubling per passage [10]: 7.31
Population Doubling per passage [10]: 3.50
Total number of cells per passage [10]: 2.38E+07
Cumulative Population Doubling per passage [11]: 10.18
Population Doubling per passage [11]: 3.57
Total number of cells per passage [11]: 1.75E+08
Cumulative Population Doubling (Table 7A) (Lutein 1 μg/ml, standard culture, week 4): 13.7
Cumulative Population Doubling per passage [12]: 13.69
Population Doubling per passage [12]: 3.50
Total number of cells per passage [12]: 1.98E+09
Cumulative Population Doubling per passage [13]: 15.71
Population Doubling per passage [13]: 2.02
Total number of cells per passage [13]: 8.04E+09
Cumulative Population Doubling per passage [14]: 18.71
Population Doubling per passage [14]: 3.00
Total number of cells per passage [14]: 6.44E+10
Cumulative Population Doubling per passage [15]: 21.39
Population Doubling per passage [15]: 2.68
Total number of cells per passage [15]: 4.12E+11
Cumulative Population Doubling (Table 7A) (Lutein 1 μg/ml, standard culture, week 8): 24.1
Cumulative Population Doubling per passage [16]: 24.13
Population Doubling per passage [16]: 2.74
Total number of cells per passage [16]: 2.75E+12
Cumulative Population Doubling per passage [17]: 3.58
Population Doubling per passage [17]: 3.58
Total number of cells per passage [17]: 1.80E+06
Cumulative Population Doubling per passage [18]: 6.91
Population Doubling per passage [18]: 3.32
Total number of cells per passage [18]: 1.80E+07
Cumulative Population Doubling per passage [19]: 10.13
Population Doubling per passage [19]: 3.22
Total number of cells per passage [19]: 1.68E+08
Cumulative Population Doubling (Table 7A) (Lutein 5 μg/ml + 10 μM H2O2, week 4): 13.5
Cumulative Population Doubling per passage [20]: 13.54
Population Doubling per passage [20]: 3.42
Total number of cells per passage [20]: 1.79E+09
Cumulative Population Doubling per passage [21]: 15.70
Population Doubling per passage [21]: 2.16
Total number of cells per passage [21]: 8.00E+09
Cumulative Population Doubling per passage [22]: 17.84
Population Doubling per passage [22]: 2.14
Total number of cells per passage [22]: 3.52E+10
Cumulative Population Doubling per passage [23]: 20.71
Population Doubling per passage [23]: 2.87
Total number of cells per passage [23]: 2.58E+11
Cumulative Population Doubling (Table 7A) (Lutein 5 μg/ml + 10 μM H2O2, week 8): 23.1
Cumulative Population Doubling per passage [24]: 23.06
Population Doubling per passage [24]: 2.34
Total number of cells per passage [24]: 1.31E+12
Cumulative Population Doubling per passage (Lutein 5 μg/ml, standard culture, week 1 (P1)): 3.81

— US20220175693A1, “DIETARY SUPPLEMENT COMPRISING LUTEIN FOR TELOMERE PROTECTION, AND METHOD FOR PRODUCTION THEREOF” (BIOGEN EXTRACTS PRIVATE LIMITED, priority 2019, published 2022)
